Non-standard residues stand in square brackets, D forms with d. Residues, ends and D or L forms follow the SMILES beside them. pGlu = O=C1CC[C@@H](C(=O)O)N1; azaGly = NNC(=O)O
Experiments:
[1] = overt toxic effects at multiples of the minimum active dose; type: in vivo; details: dosed at 20 times its minimum effective dose
luliberin = details: literature: Coy et al., Molecular and Cellular Endocrinology, 1976, 5, 201-208; cited from earlier work

Compound | overt toxic effects [1] | luliberin antagonist properties (luliberin)
CC(C)C[C@H](NC(=O)[C@@H](Cc1ccccc1)NC(=O)[C@H](Cc1ccc(O)cc1)NC(=O)[C@H](CO)NC(=O)[C@H](Cc1c[nH]c2ccccc12)NC(=O)[C@@H](Cc1ccccc1)NC(=O)[C@@H]1CCC(=O)N1)C(=O)N[C@@H](CCCNC(=N)N)C(=O)N1CCC[C@H]1C(=O)NNC(N)=O [Example 1, L-pyroglutamyl-D-phenylalanyl-L-tryptophyl-L-seryl-L-tyrosyl-D-phenylalanyl-L-leucyl-L-arginyl-L-prolylazaglycine amide] ([pGlu][dF]WSY[dF]LRP[azaGly]-NH2) | no overt toxic effects | –
[D-Phe^2, D-Phe^6 ] luliberin | – | has luliberin antagonist properties

From US4124703A, “Luliberin analogs” (Imperial Chemical Industries Limited, priority 1976, dated 1978)
